Measurements taken from ChEMBL document CHEMBL1268888, “Antiviral activity of 2,3'-anhydro and related pyrimidine nucleosides against hepatitis B virus” (Bioorg Med Chem Lett, 2010).
Values after ≈ are worked out from the molar mass of the structure shown.

Tests used:
Hepatitis B virus [1] = experiment: Antiviral activity against HBV infected in human 2.2.15 cell at 10 ug/ml; format: functional, organism-based; settings: HepG2 2.2.15
[2] = Cytotoxicity against human HuH7 cells; format: cell-based, Huh-7
Hepatitis B virus [3] = experiment: Antiviral activity against HBV infected in human 2.2.15 cell; format: functional, organism-based; settings: HepG2 2.2.15
Hepatitis B virus [4] = experiment: Antiviral activity against HBV infected in duck primary hepatocytes; format: functional, organism-based; settings: Hepatocyte
[5] = Stability of the compound in PBS buffer at physiological pH and 37 degC upto 48 hrs; format: physicochemical
[6] = Stability of the compound in fetal bovine serum at 37 degC after 24 hrs; format: ADME; settings: cattle
Hepatitis B virus [7] = experiment: Antiviral activity against HBV infected in duck primary hepatocytes at 10 ug/ml; format: functional; settings: Hepatocyte

| SMILES | inhibition at 10 µg/mL (Hepatitis B virus [1]) | CC50 [2] | EC50 (Hepatitis B virus [3]) | EC50 (Hepatitis B virus [4]) | Stability [5] | Stability [6] | inhibition at 10 µg/mL (Hepatitis B virus [7]) |
| --- | --- | --- | --- | --- | --- | --- | --- |
| CCc1cn([C@@H]2O[C@H](CO)[C@@H](O)[C@@H]2F)c(=O)[nH]c1=O | 90% | > 200 mg/L | < 10 mg/L | – | – | – | – |
| O=c1ccn2c(n1)O[C@H]1C[C@H]2O[C@@H]1CO | 65% | > 200 mg/L | 5 mg/L (≈ 23.8 µM) | 2.5 mg/L (≈ 11.9 µM) | Stable | Stable | 67% |
| O=c1nc2n(cc1F)[C@H]1C[C@H](O2)[C@@H](CO)O1 | 0% | > 200 mg/L | – | – | Stable | Stable | 30% |
| Cc1cn2c(nc1=O)O[C@H]1C[C@H]2O[C@@H]1CO | 54% | > 200 mg/L | 10 mg/L (≈ 44.6 µM) | 10 mg/L (≈ 44.6 µM) | Stable | Stable | 56% |
| O=c1nc2n(cc1C(F)(F)F)[C@H]1C[C@H](O2)[C@@H](CO)O1 | 25% | > 200 mg/L | – | > 10 mg/L | Stable | Stable | 35% |
| CCc1cn2c(nc1=O)O[C@H]1C[C@H]2O[C@@H]1CO | 51% | > 200 mg/L | 10 mg/L (≈ 42 µM) | – | Stable | Stable | 32% |
| CCc1cn2c(nc1=O)O[C@H]1[C@H](F)[C@H]2O[C@@H]1CO | 53% | > 200 mg/L | 10 mg/L (≈ 39 µM) | 2.5 mg/L (≈ 9.76 µM) | Stable | Stable | 65% |
| Cc1cn([C@H]2C[C@@H](OS(C)(=O)=O)[C@@H](CO)O2)c(=O)[nH]c1=S | 45% | > 200 mg/L | > 10 mg/L | 2.5 mg/L (≈ 7.43 µM) | – | – | 70% |
| Cc1cn([C@H]2C[C@@H](O)[C@@H](CO)O2)c(=O)[nH]c1=O | – | > 200 mg/L | – | – | – | – | – |
| O=c1ccn([C@H]2C[C@H](O)[C@@H](CO)O2)c(=O)[nH]1 [DEOXYURIDINE] | 0% | > 200 mg/L | – | – | – | – | – |
| Cc1cn([C@H]2C[C@H](O)[C@@H](CO)O2)c(=O)[nH]c1=O [DOXRIBTIMINE] | 0% | > 200 mg/L | – | – | – | – | – |
| CCc1cn([C@H]2C[C@H](O)[C@@H](CO)O2)c(=O)[nH]c1=O [EDOXUDINE] | 40% | > 200 mg/L | > 10 mg/L | – | – | – | – |
| Nc1ccn([C@@H]2CS[C@H](CO)O2)c(=O)n1 [LAMIVUDINE] | 88% | > 200 mg/L | 0.2 mg/L (≈ 0.872 µM) | 0.05 mg/L (≈ 0.218 µM) | – | – | 96% |
| O=c1[nH]c(=O)n([C@H]2C[C@H](O)[C@@H](CO)O2)cc1C(F)(F)F [TRIFLURIDINE] | 0% | > 200 mg/L | – | – | – | – | – |
